Measured values taken from paper PMC12608155, “Discovery of Potential Antileishmanial Compounds Through Phenotypic Screening of an Alkaloid Library” (Molecules, 2025).
Where two headings read alike, the source gives them in different places.

Experiments:
[1] = test system: L. donovani IRFP axenic amastigotes; assay: Primary single-concentration screening on axenic amastigotes, growth inhibition at 72 h; type: cell-based, Leishmania donovani; conditions: axenic amastigotes; for Growth Inhibition (%) at 72h, 1 µM_Exp1 / Growth Inhibition (%) at 72h, 1 µM_Exp2 / inhibition at 1 µM: 1 µM; for Growth Inhibition (%) at 72h, 10 µM_Exp1 / Growth Inhibition (%) at 72h, 10 µM_Exp2 / inhibition at 10 µM: 10 µM; for inhibition at 1 µM / inhibition at 10 µM: Leishmania donovani
[2] = test system: mouse intestinal organoids; assay: Tolerance of mouse intestinal organoids (alamarBlue); type: cell-based; conditions: for CC50: 72 h incubation, Figure S4
From the text: (§1) Mouse intestinal organoids were generated following protocols standardized previously. Briefly, to obtain adult intestine stem cells, C57BL/6 mice were humanely euthanized. A section of the duodenum was excised, rinsed in ice-cold PBS, and cut into small pieces for gentle dissociation using Gentle Cell Dissociation Reagent. Tissue fragments enriched in duodenal crypts and little tissue debris were microscopically selected and resuspended in a 1:1 mixture of Geltrex™ and IntestiCult™ Mouse Medium (Gibco, ThermoFisher Scientific, Waltham, MA, USA /Stemcell Technologies^TM, Vancouver, BC, Canada). Aliquots of 50 µL of this suspension were dispensed into the center of each well of a prewarmed 24-well plate to form domes containing organoids, which were then incubated to allow matrix polymerization. Then, […] of IntestiCult™ Mouse Medium was added to each well. The plate was incubated at 37 °C in a humidified atmosphere containing 5% CO2, and the culture medium was refreshed every 48 h. During this period, organoids continued to proliferate, and passaging was performed at a 1:4 ratio every 7–10 days.
(§2) To determine the in vitro tolerance to oral administration of the active compounds, a 384-well assay was adapted from the protocol described by Du and co-workers. Briefly, following medium removal, organoids were collected from the extracellular matrix using the same procedure as for passaging. The resulting pellet was resuspended in 3.2 mL of a 1:1 mixture of Geltrex™ LDEV-Free Reduced Growth Factor Basement Membrane Matrix (without phenol red, Gibco) and IntestiCult™ Mouse Medium. Using a chilled pipette dispenser, 8 µL of the organoid suspension was dispensed into pre-cooled 384-well plates, which were then gently agitated to evenly distribute the matrix. The plates were incubated at 37 °C for 10 min and then, 32 µL of IntestiCult™ Mouse Medium was added to each well. To prevent edge effects, 100 µL of sterile water was added to the perimeter wells. After 3 days of culture, 10 µL per well of the test compounds dissolved in IntestiCult™ Mouse Medium were added. Positive (0.03% H2O2) and negative (0.2% DMSO) controls were included in each assay. After 72 h of incubation, 5 µL of alamarBlue™ HS were added to each well, and fluorescence was measured after 24 h using a Varioskan™ LUX microplate reader. All assays were conducted in triplicate and repeated in at least three independent experiments.

[3] = test system: RAW 264.7; assay: Cytotoxicity in RAW 264.7 cells (alamarBlue, 72 h); conditions: read-out: CC50 RAW 264.7; 72 h, alamarBlue
Description: (§3) To this end, we calculated SIs from 16 preselected results from the ex vivo system. With this aim, dose–response curves were performed in duplicate across at least three independent experiments using RAW 264.7 mouse macrophages (as a model of host cells harboring amastigotes) and HepG2 (as a model for assessing systemic toxicity).
(§4) To evaluate the safety of the selected compounds, two cell lines were employed: RAW 264.7 (a mouse macrophage-derived cell line) and HepG2 (a human hepatoma cell line). Furthermore, to determine the intestinal tolerance relevant to potential oral administration, mouse intestinal organoids were prepared.
(§5) RAW 264.7 and HepG2 were routinely cultured under standard conditions. RAW 264.7 cells were maintained in RPMI medium (Gibco) supplemented with, 25 mM HEPES, 24 mM NaHCO3, 2 mM L-glutamine, mixture of antibiotics and 10% FBS. HepG2 cells were cultured in DMEM/F-12 (Gibco) and supplemented 10% of FBS. For cytotoxicity assays, 10,000 cells per well were seeded into 96-well plates and incubated overnight at 37 °C with 5% of CO2. Subsequently, 2-fold serial dilutions of the compounds were added and incubated for 72 h. Cell viability using the alamarBlue™ assay according to the manufacturer’s instructions, and fluorescence was measured with a Varioskan™ LUX microplate reader (ThermoFisher Scientific, Waltham, MA, USA). Non-linear regression analyses were performed using SigmaPlot^TM software (version 10.0) to calculate CC50. Data were obtained from at least three independent experiments performed in duplicate.

[4] = test system: L. donovani IRFP intramacrophagic amastigotes; assay: Dose-response assay on ex vivo infected splenic explants (intramacrophagic amastigotes); type: cell-based, Leishmania donovani; conditions: read-out: EC50 Intramacrophagic Amastigotes
[5] = test system: L. donovani IRFP axenic amastigotes; assay: Dose-response assay on axenic amastigotes; type: cell-based, Leishmania donovani
Description: The objective of the present study was to identify new antileishmanial drug candidates by screening a commercial library of plant-derived alkaloids using a platform based on axenic amastigotes of L. donovani IRFP—the causative agent of VL—genetically modified to emit infrared fluorescence during their viable stage (hereafter referred to as L. donovani IRFP). To this end, single-dose assays at 10 μM and 1 μM, as well as dose–response assays, were performed. Compounds showing significant activity in the initial screening were subsequently clustered according to chemical structure using the DataWarrior tool, and representative compounds were further evaluated in dose response assays against axenic amastigotes.
Female Balb/c mice aged from 6 to 8 weeks were intraperitoneally inoculated with 1.5 × 10^9 infective L. donovani IRFP metacyclic promastigotes. Between 8 and 12 weeks after infection, mice were humanely euthanised and bone marrow was collected from the femurs and tibias of both hind limbs. The bones were cut at both ends, and prewarmed PBS was flushed through the medullary cavity using a syringe fitted with a 27G needle, to extract the bone marrow cells. The resulting cell suspension was filtered through a 100 µm cell strainer and centrifuged at 2500 rpm for 10 min at room temperature. To obtain free amastigotes, the pelleted cells were resuspended within a 75 mL ventilated flask in amastigote culture medium (15 mM KCl; 136 mM KH2PO4; 10 mM K2HPO4.3H2O; 0.5 mM MgSO4.7 H2O; 24 mM NaHCO3; 22 mM glucose; 1 mM glutamine, 1x RPMI 1640 vitamin mix (Sigma-Aldrich, Merck, Darmstadt, Germany), 10 mM folic acid, […], 1x RPMI amino acid mix (Sigma-Aldrich, Merck, Darmstadt, Germany), […], antibiotic mixture, 25 mM MES, 10% FBS (Gibco, ThermoFisher Scientific, Waltham, MA, USA) and incubated at 37 °C in a humidified atmosphere containing 5% CO2 [46].
The efficacy of the selected compounds was assessed by measuring near-infrared fluorescence (700 nm) using an Odyssey Infrared Imaging System (Li-Cor, Lincoln, NE, USA) following the previously described protocols.

[6] = test system: HepG2; assay: Cytotoxicity in HepG2 cells (alamarBlue, 72 h); conditions: read-out: CC50 HepG2; 72 h, alamarBlue
Description: as §3, §4, §5

[7] = Tolerance of mouse intestinal organoids (alamarBlue); type: cell-based; conditions: C57BL/6, mouse
From the text: as §1, §2

[8] = Cytotoxicity in RAW 264.7 cells (alamarBlue, 72 h); conditions: mouse
Description: as §3, §4, §5

[9] = Cytotoxicity in HepG2 cells (alamarBlue, 72 h); conditions: human
Description: as §3, §4, §5

[10] = test system: axenic amastigotes of L. amazonensis; parameters: method as in PMID 25029171; conditions: compared with glucantime; cited from earlier work
[11] = test system: Leishmania amazonensis; parameters: method as in PMID 25029171; conditions: cited from earlier work
[12] = primary cultures of infected mouse splenocytes
[13] = mouse intestinal organoids (from duodenal crypts), 72 h incubation, Figure S4, read-out: CC50 mouse intestinal organoids
[14] = Leishmania donovani, Splenocyte, primary cultures of infected mouse splenocytes
[15] = experiment 1, 72 h, read-out: Growth Inhibition (%) at 72h, 1 µM_Exp1
[16] = experiment 2, 72 h, read-out: Growth Inhibition (%) at 72h, 1 µM_Exp2
[17] = experiment 1, 72 h, read-out: Growth Inhibition (%) at 72h, 10 µM_Exp1
[18] = experiment 2, 72 h, read-out: Growth Inhibition (%) at 72h, 10 µM_Exp2

Row | Compound | Growth Inhibition (%) at 72h, 1 µM_Exp1 ([1]; experiment 1, 72 h) | Growth Inhibition (%) at 72h, 1 µM_Exp2 ([1]; experiment 2, 72 h) | Growth Inhibition (%) at 72h, 10 µM_Exp1 ([1]; experiment 1, 72 h) | Growth Inhibition (%) at 72h, 10 µM_Exp2 ([1]; experiment 2, 72 h) | CC50 [2] | CC50 [3] | EC50 [4, 12] | IC50 [5] | CC50 [6] | CC50 at 72 h ([8]; RAW 264.7 macrophage cells) | EC50 [4, 14] | IC50 ([5]; Leishmania donovani) | CC50 at 72 h ([9]; HepG2 hepatoma cells) | inhibition at 1 µM [1, 15] | inhibition at 1 µM [1, 16] | inhibition at 10 µM [1, 17] | inhibition at 10 µM [1, 18] | CC50 at 72 h [8] | CC50 at 72 h [9] | other results
1 | COc1ccc2c(C)c3[n+](cc2c1OC)CCc1cc2c(cc1-3)OCO2 [13-Methylberberine] | 58.33% | 69.84% | 86.05% | 98.60% | > 10 µM | > 10 µM | 0.75 ± 0.02 µM | 0.5 ± 0.04 µM | 28.3 ± 9.18 µM |  |  |  |  |  |  |  |  |  |  | 
2 | COc1ccc2c(c1OC)C(OC)N(C)c1c-2ccc2cc3c(cc12)OCO3 (centres unmarked) [Angoline] | 83.55% | 85.33% | 100.85% | 100.07% | 12.6 ± 0.6 µM | 5.28 ± 0.28 µM | 1.15 ± 0.04 µM | 0.12 ± 0.01 µM | 5.15 ± 0.21 µM |  |  |  |  |  |  |  |  |  |  | Toxicity in mouse intestinal organoids (tolerance for oral administration) ([2]; in words): significant toxicity
3 | COc1ccc2cc3[n+](cc2c1OC)CCc1cc2c(cc1-3)OCO2 [Berberine] |  |  |  |  |  |  |  |  |  | > 20 µM | 1.76 ± 0.06 µM | 0.57 ± 0.08 µM | > 20 µM |  |  |  |  |  |  | CC50 at 72 h [7, 13]: > 25 µM
4 | COc1ccc2c(c[n+](C)c3c4cc5c(cc4ccc23)OCO5)c1OC [Chelerythrine] |  |  |  |  |  |  |  |  |  |  | 1.61 ± 0.05 µM | 0.08 ± 0.01 µM |  | 97.2% | 95.7% | 100% | 101% | 5.51 ± 0.16 µM | 5.5 ± 0.64 µM | in vitro IC50 values against axenic amastigotes of L. amazonensis [10]: very similar to those of glucantime; antileishmanial effect in vivo [11]: moderate
5 | c1c2c(cc3c1OCO3)-c1cc3ccc4c(c3c[n+]1CC2)OCO4 [Coptisine] |  |  |  |  |  |  |  |  |  |  |  | 2.85 ± 0.25 µM |  |  |  |  |  | > 10 µM | > 10 µM | CC50 at 72 h [7]: > 25 µM; EC50 ([4]; Leishmania donovani, Splenocyte, in Mus musculus): 3.39 ± 0.23 µM
6 | COc1cc2c(cc1OC)-c1c(C)c3ccc(OC)c(OC)c3c[n+]1CC2 [Dehydrocorydaline] |  |  |  |  |  |  |  |  |  | > 10 µM | 2.68 ± 0.11 µM | 2.81 ± 0.49 µM | > 10 µM | 19.1% | -42.6% | 81.7% | 88.3% |  |  | CC50 at 72 h [7, 13]: > 50 µM
7 | CCOC1c2c(ccc3c2OCO3)-c2ccc3cc4c(cc3c2N1C)OCO4 (centres unmarked) [Ethoxysanguinarine] | 100.74% | 99.44% | 100.41% | 100.07% |  | 1.62 ± 0.11 µM | 0.84 ± 0.03 µM | 0.21 ± 0.03 µM | 1.44 ± 0.03 µM |  |  |  |  |  |  |  |  |  |  | 
8 | COc1cc2c[n+](C)c3c4cc5c(cc4ccc3c2cc1OC)OCO5 [Nitidine] |  |  |  |  |  |  |  |  |  | 2.01 ± 0.16 µM | 0.65 ± 0.03 µM | 0.27 ± 0.01 µM | 0.49 ± 0.02 µM | 45% | 69.6% | 100% | 99.7% |  |  | in vitro IC50 values against axenic amastigotes of L. amazonensis [10]: very similar to those of glucantime; antileishmanial effect in vivo [11]: moderate
9 | c1c2c(cc3c1OCO3)-c1cc3cc4c(cc3c[n+]1CC2)OCO4 [Pseudocoptisine] | 65.54% | 88.42% | 97.95% | 99.04% | > 10 µM | > 10 µM | 1.43 ± 0.07 µM | 0.81 ± 0.12 µM | > 10 µM |  |  |  |  |  |  |  |  |  |  | 
10 | CC[C@@H]1[C@H]2CCCCN3[C@H]2[C@H](C[C@H]3[C@@H]2C[C@H](C)C(=O)O2)[C@@H]2[C@H]1OC(=O)[C@H]2C [Tuberostemonine] |  |  |  |  |  |  |  |  |  |  | > 50 µM | 2.06 ± 0.11 µM |  | 63.6% | 53% | 102% | 101% | 50 ± 5.51 µM | > 40 µM | 
